Where only a bound is given, the exact number is not on record here.

The text below walks through data of patent US4281009A, “Hydantoin derivatives” (Nippon Zoki Pharmaceutical Co., Ltd., priority 1978, dated 1981).

In data set [1] the test system is dd-strain male mice. Description: Inhibitory effect on spontaneous motor activities (Animex method). It is filed as in vivo. Particulars: after 60 minutes. Here is the method: 4.1 Inhibitory effect on spontaneous motor activities:
Groups each comprising 8-16 dd-strain male mice were used. The compounds of the present invention were given intraperitoneally. After 60 minutes, spontaneous motor activities for 15 minutes were measured by the Animex method.

The nature of data set [2]: Acute toxicity test (LD50, Litchfield-Wilcoxon), rats. Particulars: rat, in vivo, ip, intraperitoneal. Here is the method: (§1) Toxicity tests were carried out by intraperitoneal administration of the compound of the present invention to groups each comprising 10 ICR-strain mice and SD-strain rats. LD50 was calculated by the Litchfield-Wilcoxon method based on the number of death 72 hours after the administration.

The test system of data set [3] is normal mice and SART stress mice. Description: Analgesic effect, acetic acid writhing method. In kind it is in vivo. The following applies: Mus musculus, sc, 100 mg/Kg subcutaneously. Here is the method:
5.2. Acetic acid writhing method: 0.1 ml./10 g of isotonic sodium chloride solution containing 0.7% acetic acid was given intraperitoneally to groups of mice each comprising 5 normal mice and 5 SART stress mice to which SART stress had been applied for 8 days. Writhing syndromes number appeared for 15 minutes after the administration was measured. The effect was evaluated by giving 100 mg/Kg of the compounds of the present invention or DPH subcutaneously and comparing the writhing syndromes number of the mice with that of control mice.
In general terms: An intraperitoneal irritant provokes the stretching counted in writhing tests.

The test system of data set [4] is dd-strain male mice. Description: Inhibitory effect on exploratory movements. It is filed as in vivo. The following applies: 150 mg/kg intraperitoneal, after 60 minutes. Here is the method:
4.2. Inhibitory effect on exploratory movements:
Groups each comprising 16-35 dd-strain male mice were used. The compounds of the present invention were given intraperitoneally. After 60 minutes, exploratory movements for 15 minutes were measured with an exploratory movement recorder by a method of Tokyo Kyoiku University.

For data set [5], the system named is dd-strain male mice. Description: Antiulcerogenic effect on Takagi's restraint-plus-water-immersing ulcer. In kind it is in vivo. Here is the method:
6.1 Antiulcerogenic effect on Takagi's restraint-plus-water-immersing ulcer: Groups each comprising 8-26 dd-strain male mice were used. The tests were carried out according to a method of Takagi, et al. [Chem. Pharm. Bull.; 12, 465 (1964)]. Sum of length of diseased parts in the glandular stomach was measured and it was compared with that of control group. The compounds of the present invention or DPH was given intraperitoneally immediately before the restraint and immersion in water.

Data set [6] deals with normal mice and SART stress mice. Nature of the data set: Analgesic effect, D'Amour-Smith method. Particulars: Mus musculus; for responders at 200 mg/kg: ip, intraperitoneal 200 mg/kg; for responders at 500 mg/kg: po, peroral 500 mg/kg. It is filed as in vivo, mice (ddY-strain male). The essentials:
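ddY male normal mice and mice under 4-day SART stress (n=10/group); black-inked tail root irradiated with infrared rays (up to 15 s cutoff), escape latency recorded. Effect expressed as proportion of mice whose mean latency at 30, 60, 90 and 120 min post-dose was at least 2× pre-dose latency.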

Data set [7] in a line: Acute toxicity test (LD50, Litchfield-Wilcoxon), mice. The following applies: mouse, in vivo, ip, intraperitoneal. Here is the method:
as §1

The next data set has as its system ddY-strain male mice. Description: Effect of prolongation of sleeping time (hexobarbital). In kind it is in vivo. The following applies: for change in vivo at 100 mg/kg: 100 mg/kg intraperitoneal. In outline: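 Groups of 10 male ddY mice received compounds intraperitoneally along with intraperitoneal sodium hexobarbital. Loss of righting reflex was timed, and prolongation was measured against control mice.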

The test system of data set [8] is dd-strain male mice. Nature of the data set: Inhibitory effect on Tremorine-induced tremor. In kind it is in vivo. The following applies: tremorine 10 mg/Kg. Here is the method:
9. Inhibitory effect on Tremorine-induced tremor:
Groups of mice each comprising 10-40 dd-strain male mice were used. Effect of the compounds of the present invention on tremor caused by tremorine was examined. The compounds of the present invention or DPH was given intraperitoneally. 45 minutes thereafter, 10 mg/Kg of tremorine was given intraperitoneally for inducing the tremor.

The subject of data set [9] is normal mice and SART stress mice. Description: Analgesic effect, tail pressure method (Randall-Selitto's device). It is filed as in vivo, mice (ddY-strain male). The following applies: Mus musculus; for change in vivo at 100 mg/kg / change in vivo at 200 mg/kg: ip; for change in vivo at 500 mg/kg: po, peroral 500 mg/kg; for change in vivo at 200 mg/kg: intraperitoneal 200 mg/kg. In outline: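 Randall-Selitto tail pressure threshold measured 60 min after intraperitoneal dosing, expressed as post/pre-dose pressure ratio versus vehicle control (0.5% CMC-Na or 0.5% Tween 80, 10 ml/kg). For oral dosing, mean of readings at 30, 60, 90 and 120 min used.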

The subject of another data set is Wistar-strain male rats. Nature of the data set: Antiulcerogenic effect on Shay's ulcer (operative ulcer). The following applies: 10 times. In kind it is in vivo. Here is the method: 6.2. Antiulcerogenic effect on Shay's ulcer (operative ulcer):
Tests were carried out by using groups of rats each comprising 5-10 Wistar-strain male rats according to Shay method [Shay Harry; Gastroenterology,; 5, 43 (1945)]. Ulcers in the anterior stomach were classified on the following basis:
2. 1-5 small ulcers (diameter of less than 3 mm)
3. 6 or more small ulcers or one big ulcer (diameter of more than 3 mm)
4. two or more big ulcers

The test system of another data set is SART stress mice. Description: Inhibitory effects on increase of heart rate and elongation of QRS-time in SART stress mice. In kind it is in vivo, mice (dd-strain male). The following applies: 100 mg/kg/day, 9th day, Average ± S.D. Here is the method: SART stress animals used in the tests described below were raised according to a method of Kita, et al. [Folia Pharmacol. Japan.: 71, 195-210 (1975)].
2. Inhibitory effects on increase of heart rate and elongation of QRS-time in stress animals:
Groups of mice each comprising 11 or 12 dd-strain male mice were divided into three groups in the same manner as above and heart rate and QRS-time were determined on the 9th day after initiation of the tests.

Data set [10] deals with spontaneously hypertensive rats (SHR). Nature of the data set: Antihypertensive effect in spontaneously hypertensive rats. It is filed as in vivo. Particulars: 150 mg/Kg intraperitoneal, 60 minutes. Here is the method: 8. Antihypertensive effect: Groups of rats each comprising 6-9 spontaneously hypertensive rats (SHR) were used. The compounds of the present invention or DPH was given intraperitoneally. The rate of antihypertension 60 minutes after the administration was determined.

For data set [11], the system named is normal rats and SART stress rats. Description: Analgesic effect, pain induced by Bradykinin. In kind it is in vivo, rats (SD-strain male). Here is the method:
5.4 Method of measuring a pain induced by Bradykinin:
Groups each comprising 4-8 SD-strain male normal rats and SART stress rats to which SART stress had been applied for 4 days were used. The tests were carried out according to the method of Deffenu et al. [Deffenu, G., Pegrassi, L., & Fumachi. B.; J. Pharm. Pharmacol.; 18, 135 (1966)] and Blane method [Blane, G. F.; J. Pharm. Pharmacol.; 19, 367 (1967)]. The effect judged was shown by ratio of the rats in which the effect was recognized according to the method of Abe, et al. [Abe, Kaneko & Takagi; Folia Pharmacol. Japon.; 67, 9-14 (1971)].

For orientation: LD50 means the dose expected to kill half of the subjects tested. Read a low LD50 as greater toxicity. One may read the inhibition in vivo as the relative decrease from the control value, in per cent. `O=C1NC(=O)C(c2ccc(O)cc2)(c2cccs2)N1` (centres unmarked) [Compound 1, 5-(4-Hydroxyphenyl)-5-(2-thienyl)hydantoin]: the “Inhibitory effect on spontaneous motor activities” value in the data set with dd-strain male mice [1] (50 mg/kg intraperitoneal) is 22.4%; in the data set with dd-strain male mice [1] (150 mg/kg intraperitoneal) it was 30.7%. For the same molecule, the LD50 at 72 h in data set [2] (female) is > 3000 mg/kg; in data set [2] (male), > 3000 mg/kg; in data set [7] (female) it was 2000 to 3000 mg/kg; in data set [7] (male) it was > 3000 mg/kg. The inhibition in vivo at 100 mg/kg in data set [3] (SART stress mice) was determined as 20.9%; in data set [3] (normal mice), 2.4%. In the data set on dd-strain male mice [4], the “Inhibitory effect on exploratory movements” value is reported as 33.2%. Moreover, in the data set on dd-strain male mice [5] (Mus musculus, ip, 150 mg/kg intraperitoneal), the inhibition in vivo at 150 mg/kg amounted to 30.6%. In addition, the responders at 200 mg/kg in data set [6] (SART stress mice) came to 30%; in [6] (normal mice) it was 20%. Moreover, the change in vivo at 100 mg/kg with ddY-strain male mice (Mus musculus, ip) was determined as 36.9%; in data set [9] (1 h, SART stress mice, intraperitoneal 100 mg/kg, 60 minutes), 82.3%; in [9] (1 h, normal mice, intraperitoneal 100 mg/kg, 60 minutes) it was 26.9%. Further, in the data set with dd-strain male mice [8] (150 mg/kg intraperitoneal), the “Inhibitory effect on Tremorine-induced tremor” value is reported as 33%. In addition, the “Antiulcerogenic effect on Shay's ulcer (operative ulcer)” value with Wistar-strain male rats (100 mg/kg intraperitoneal) stood at 14.6%; with Wistar-strain male rats (150 mg/kg intraperitoneal), 26.5%. The same molecule registered a Heart rate in the data set on SART stress mice of 741 ± 39 min⁻¹. Moreover, in the data set with SART stress mice, the QRS-time is 13.9 ± 0.8 1/1000 sec.

With `O=C1NC(=O)C(c2ccccc2)(c2ccccc2)N1` [DPH, 5,5-diphenylhydantoin, reference compound], the inhibition in vivo at 100 mg/kg in [3] (SART stress mice) is -6%; in [3] (normal mice), -16.3%; in the data set with dd-strain male mice [5] (Mus musculus, ip, 100 mg/kg intraperitoneal), 9%. The Rate of antihypertension in data set [10] stood at 6.6%. The “Antiulcerogenic effect on Takagi's restraint-plus-water-immersing ulcer” value in the data set on dd-strain male mice [5] (50 mg/kg intraperitoneal) came to 7.8%. In addition, the responders at 500 mg/kg in data set [6] (SART stress mice) and in data set [6] (normal mice) was 0% throughout. The Analgesic effect worked out at 0% in data set [11] (SART stress rats, peroral 500 mg/kg) and 0% in data set [11] (normal rats, peroral 500 mg/kg). The “Inhibitory effect on Tremorine-induced tremor” value with dd-strain male mice [8] (50 mg/kg intraperitoneal) and in the data set with dd-strain male mice [8] (100 mg/kg intraperitoneal) was 0% each time. Moreover, the change in vivo at 100 mg/kg in [9] (SART stress mice, comparative drug intraperitoneal 100 mg/kg, average of 30, 60, 90 and 120 minutes) is 18.4%; in data set [9] (normal mice, comparative drug intraperitoneal 100 mg/kg, average of 30, 60, 90 and 120 minutes), -33.1%. Besides, the change in vivo at 500 mg/kg in data set [9] (SART stress mice, average of 30, 60, 90 and 120 minutes) was found to be 17.9%; in data set [9] (normal mice, average of 30, 60, 90 and 120 minutes), 5.9%.

As to `CCC1(c2ccc(O)cc2)NC(=O)NC1=O` (centres unmarked) [Compound 24, 5-Ethyl-5-(4-hydroxyphenyl)hydantoin], the median lethal dose (LD50) at 72 h in data set [2] (female), in [2] (male), in data set [7] (female) and in data set [7] (male) was > 5000 mg/kg throughout. Also, the inhibition in vivo at 75 mg/kg in the data set on dd-strain male mice [5] (Mus musculus, ip, 75 mg/kg intraperitoneal) came to 11.9%. The inhibition in vivo at 125 mg/kg in the data set on dd-strain male mice [5] (Mus musculus, ip, 125 mg/kg intraperitoneal) stood at 27.5%. Further, the Analgesic effect in data set [11] (SART stress rats, intraperitoneal 100 mg/kg) is 50%; in [11] (normal rats, intraperitoneal 100 mg/kg), 20%. The “Effect of prolongation of sleeping time” value in the data set with ddY-strain male mice (50 mg/kg intraperitoneal) is recorded as 42.1%. Further, in the data set with ddY-strain male mice (Mus musculus, ip), the change in vivo at 100 mg/kg was 54.4%. Also, the change in vivo at 300 mg/kg with ddY-strain male mice (Mus musculus, ip, 300 mg/kg intraperitoneal) is 84.4%. Besides, the “Inhibitory effect on Tremorine-induced tremor” value with dd-strain male mice [8] (150 mg/kg intraperitoneal) is 40%. Moreover, the change in vivo at 200 mg/kg in [9] (1 h, SART stress mice, 60 minutes) amounted to 31.2%; in data set [9] (1 h, normal mice, 60 minutes), 20.4%. In addition, the “Antiulcerogenic effect on Shay's ulcer (operative ulcer)” value with Wistar-strain male rats (50 mg/kg intraperitoneal) was 17.5%; in the data set on Wistar-strain male rats (100 mg/kg intraperitoneal) it was 32.2%. Further, the Heart rate with SART stress mice was 729 ± 58 min⁻¹. In addition, in the data set on SART stress mice, the QRS-time was 13.3 ± 0.9 1/1000 sec.
